Measurements from patent US20250099450A1, “PHARMACEUTICAL COMBINATION FOR TREATING TUMORS AND USE THEREOF” (INXMED (NANJING) CO., LTD, priority 2022, published 2025).

Tests used:
[1] = system: CT-26 mouse colorectal cancer cell subcutaneous allograft tumor; experiment: In vivo antitumor efficacy, CT-26 subcutaneous allograft tumor model (Example 3); design: species or system BALB/c mice; TGI (tumor growth inhibition rate): dose or concentration left out as unconfirmed; details: for TGI (tumor growth inhibition rate) / Tumor volume on day 15: 15th day after group administration; for TGI (tumor growth inhibition rate): vs control group; for Tumor volume on day 15: Cobimetinib 7.5 mg/kg ip TIW, IN10018 12.5 mg/kg po QD, PDL1 antibody 5 mg/kg ip BIW, mean ± standard error
Excerpt: Mice: Female BALB/c mice aged 6-8 weeks were purchased from Beijing Weitong Lihua Laboratory Animal Co., Ltd. The assay began after the animals arrived and were adapted to the experimental environment. The animals were kept in IVC (independent ventilation system) cages (6 per cage) in an SPF-level animal room. All cages, bedding and drinking water must be sterilized before use. All experimenters should wear protective clothing and latex gloves when operating in the animal room. The animal information cards for each cage should indicate the number of animals in the cage, gender, strain, receipt date, dosing regimen, assay number, group and start date of the assay. Cages, feed and drinking water were changed twice a week. The breeding environment and lighting conditions are as follows:
5% CO2 incubator. Two to three times a week, routine digestion and subculture were performed with trypsin-EDTA. When the cells were in the exponential growth phase and the saturation was 80%-90%, the cells were harvested, counted, and inoculated.
0.1 mL of cell suspension containing 3×10^5 cells was subcutaneously inoculated on the right back of each mouse. When the tumor volume reached ˜58 mm^3 (10 days after cell inoculation), the mice were randomly divided into groups for drug administration according to the tumor volume.
The diameter of tumor was measured with vernier caliper, 3 times a week. The formula for calculating the tumor volume is: V=0.5×a×b^2, where a and b represent the long and short diameters of the tumor respectively.
Animals were considered dead when they died naturally or when the tumor volume was greater than 2500 mm^3. The survival rate and life cycle of the animals after administration were calculated based on this.
Statistical analysis was performed based on tumor volume and tumor weight at the end of the trial using Prism Graphpad software. Comparisons between multiple groups were analyzed using the Two-way ANOVA test, and P<0.05 was considered as having significant differences.
The survival rate of animals was analyzed using the Gehan-Breslow-Wilcoxon test, and P<0.05 was considered as having significant difference.

[2] = system: colon cancer CT-26 cell line; experiment: In vitro efficacy of IN10018 and HL-085 in CT26 cells (microscopy, flow cytometry); format: cell-based, mouse; details: 48 hours, IN10018 5 μM, HL-085 1 μM
Description: CT26 cells were cultured with RPMI 1640 (Shanghai Yuanpei, Cat No.: L210KJ, Lot No.: F210916)+10% FBS (Gibco, Cat No.: 10099-141c, Lot No.: 2158737cp) and passaged twice. When the cells were in good condition, the culture plates were placed in 24-well plates. After 24 hours of cell spreading, four groups were set up. The first group was the control group, to which culture medium was added, the second group was IN10018 at a concentration of 5 μM, the third group was HL-085 at a concentration of 1 μM, and the fourth group was IN10018 (5 μM) combined with HL-085 (1 μM). The drugs were mixed and cultured at 37° C. in a 5% CO2 incubator for 48 hours.
After 48 hours of drug action, cells were observed under a microscope and photographed to confirm the cell killing effect. Then the cells were collected for flow analysis, and the cells were washed twice with flow buffer (PBS+2% FBS) and 0.5 μl AF647. Anti-calreticulin antibody (abeam) was added to each well and mixed. The mixture was incubated at 4° C. in the dark, flow buffer was added after 20 min of incubation, the annexin staining kit (Beyotime) was used and 195 μl […] was added. After pipetting and mixing with the cells, 5 μl Annexin-V-FITC antibody was added and gently mixed. Finally, 10 μl PI dye was added and mixed. […]

[3] = system: melanoma cells A375; experiment: Cell killing (CCK8) of Cobimetinib against A375 after FAK silencing; format: cell-based; details: with FAK silencing (FAK siRNA) vs control siRNA, 72 h
Description: In the in vitro assay, different concentrations of Cobimetinib were given under the condition of silencing the FAK gene. In A375 cells, the cell killing curve was obtained and the IC50 value was determined. The cytotoxic effect of Cobimetinib in the control group and the FAK siRNA group was compared to explore the effect of the FAK target on the cytotoxicity of Cobimetinib. The cell killing curve of Cobimetinib at different concentrations in melanoma cells A375 under the condition of FAK gene silencing was detected in the assay and the IC50 value was determined. A 96-well cell plate was seeded with 5000 A375 cells/well, and two groups were transfected with control siRNA or FAK siRNA respectively. Cobimetinib was added 24 hours after the transfection. The highest concentration was 1 μM. A total of 6 concentrations were set for 3-fold gradient dilution. The lowest concentration of Cobimetinib was 4.115 nM. After the drug and cells were incubated for 72 hours, 10 μl CCK8 solution was added to each well and incubated at 37 degrees in a 5% carbon dioxide incubator for 2 hours. A microplate reader with the absorbance wavelength set to 450 nm was used for reading. The values read were compared to the DMSO control group and plotted using Graphpad 8.0.

[4] = system: endoplasmic reticulum stress-related proteins GRP78 and Phospho-eIF2α (Ser51) in A375 cells; experiment: Endoplasmic reticulum stress protein expression in A375 after FAK silencing plus Cobimetinib; format: cell-based; details: FAK siRNA 50 nM, then Cobimetinib 6 hours
Description: A375 cells were transfected with control siRNA or FAK siRNA at a final concentration of 50 nM. After 24 hours of transfection, different concentrations of Cobimetinib were given for 6 hours. The protein expression levels of FAK and endoplasmic reticulum stress-related proteins GRP78 and Phospho-eIF2α (phosphorylated-Phospho-eIF2α) (Ser51) were detected.

[5] = system: Calreticulin (ICD target) in A375 cells; experiment: Calreticulin immunofluorescence in A375 after FAK silencing plus Cobimetinib; format: cell-based; details: FAK siRNA 50 nM, then 10 nM Cobimetinib 48 hours
Description: A375 cells were transfected with control siRNA or FAK siRNA at a final concentration of 50 nM. After 24 hours, A375 cells were treated with 10 nM Cobimetinib for 48 hours and then calreticulin was detected by immunofluorescence.

COc1cc(C(=O)NC2CCN(C)CC2)c(F)cc1Nc1ncc(C(F)(F)F)c(Oc2cccc3c2C(=O)N(C)C3)n1 [IN10018]
TGI (tumor growth inhibition rate) [1]: 19.9% | Tumor volume on day 15 [1]: 2418.8±436.5 mm^3 | cell status / cell killing effect observed under a microscope [2]: better

O=C(c1ccc(F)c(F)c1Nc1ccc(I)cc1F)N1CC(O)([C@@H]2CCCCN2)C1 [Cobimetinib]
cell killing effect of cobimetinib on melanoma cells A375 [3]: significantly enhance | endoplasmic reticulum stress of A375 [4]: Significantly Up-Regulated | exposure and release of the DAMPs marker calreticulin [5]: significantly enhance | TGI (tumor growth inhibition rate) [1]: 59.2% | Tumor volume on day 15 [1]: 1261.3±565.4 mm^3 | Survival rate on Day 31 ([1]; 31st day after group administration, death = natural death or tumor volume > 2500 mm^3, Cobimetinib 7.5, IN10018 12.5, PDL1 antibody 5 mg/kg): 16.7% | Median survival time ([1]; up to the 31st day after group administration, Cobimetinib 7.5, IN10018 12.5, PDL1 antibody 5 mg/kg): 22 days

O=C(NOCCO)c1cc2scnc2c(F)c1Nc1ccc(I)cc1F [HL-085]
cell status / cell killing effect observed under a microscope [2]: poor
